Tests used:
[1] = biological target: Fatty acid-binding protein, adipocyte (Homo sapiens, UniProt P15090); experiment: Binding affinity to ap2
[2] = biological target: Fatty acid-binding protein 5 (Homo sapiens, UniProt Q01469); experiment: Binding affinity to human kFABP
Chain of Fatty acid-binding protein 5 (Q01469 whole entry): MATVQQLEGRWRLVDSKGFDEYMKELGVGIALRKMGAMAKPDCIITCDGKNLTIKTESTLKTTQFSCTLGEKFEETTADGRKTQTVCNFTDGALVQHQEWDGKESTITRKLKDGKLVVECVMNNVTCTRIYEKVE

Chain of Fatty acid-binding protein, adipocyte (P15090 whole entry): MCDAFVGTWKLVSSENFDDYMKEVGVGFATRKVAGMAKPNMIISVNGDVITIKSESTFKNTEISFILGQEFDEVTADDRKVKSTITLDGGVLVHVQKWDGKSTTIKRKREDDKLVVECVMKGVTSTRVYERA

| Ki [1] | Ki [2] | SMILES |
| --- | --- | --- |
| > 2000 nM | > 2000 nM | OCC(O)c1cccc(OCc2ccccc2Cl)c1OCc1ccccc1Cl (stereo unspecified) |
| 16 nM | – | O=C(O)Cc1cccc(OCc2ccccc2Cl)c1OCc1ccccc1Cl |
| 2.5 nM | – | O=C(O)[C@@H](O)c1cccc(OCc2ccccc2Cl)c1OCc1ccccc1Cl |
| < 2 nM | < 2 nM | O=C(O)C(=O)c1cccc(OCc2ccccc2Cl)c1OCc1ccccc1Cl |

Source: ChEMBL document CHEMBL1145330, “NMR structure of a potent small molecule inhibitor bound to human keratinocyte fatty acid-binding protein” (J Med Chem, 2006)
